# Experimental data taken from patent US11096928B2, “Pharmaceutical composition” (WUHAN LL SCIENCE AND TECHNOLOGY DEVELOPMENT CO., LTD., priority 2016, dated 2021).
# Experiments:
# [1] = tested on: chronic heart failure rats; assay: Therapeutic effect of pharmaceutical composition on chronic heart failure rats (high-salt fed DSS rats); type: in vivo, rat; conditions: high-salt (8% sodium chloride) fed DSS rats, administration for 7 weeks, analysis at 18-weeks-age
# Experimental: Five-week-old male DSS rats (purchased from Beijing Weitong Lihua Experimental Animal Technology Co., Ltd.) were randomly divided into 10 groups, among which, one group were fed with low salt as normal control group and the other 9 groups were fed with high salt. The low-salt feeding group were administered 0.3% sodium chloride, and high-salt feeding group were administered 8% sodium chloride to induce hypertension-cardiac hypertrophy-heart failure to form pathological model. […] The rats were killed at 18-weeks-age for analysis of blood pressure and atrial natriuretic peptide (ANP).
# [2] = tested on: rats with heart failure by coronary artery ligation (CAL); assay: Therapeutic effect of pharmaceutical compositions on acute heart failure caused by coronary artery ligation; type: in vivo, rat; conditions: Sprague-Dawley rats, after 4 weeks of continuous administration; for EF (left ventricular ejection fraction): cardiac ultrasound
# Text: Male Sprague-Dawley rats (purchased from Beijing Weitong Lihua Experimental Animal Technology Co., Ltd.) were used to perform heart failure model by coronary artery ligation (CAL). One week after surgery, the myocardial infarct size of the rats was examined by echocardiography. […] Operations on the normal control group were the same as above, except for the absence of arterial ligation. Rats with successful modeling were randomly divided into 9 groups, wherein each group has 10 rats. […] Cardiac function was detected by cardiac ultrasound after 4 weeks of continuous administration, and changes of mean arterial pressure (MAP) and left ventricular ejection fraction (EF) were analyzed.
# [3] = tested on: spontaneously hypertensive rats; assay: Antihypertensive efficacy test of pharmaceutical compositions in spontaneously hypertensive rats; type: in vivo, rat; conditions: SHR, intragastric once a day, 28 days after administration
# Experimental: After that, the blood pressure sensing catheter of hypertension implant was inserted into their abdominal aorta, while the implant was fixed to the abdominal wall, and then postoperative daily care was performed after suturing. […] A group of WKY rats (provided by Beijing Weitong Lihua Co., Ltd.) was set as a normal control group, which were administered intragastrically once a day at a volume calculated by 4 mL/kg for a total of 4 weeks. Each group were administered as follows: The normal control group were not administered; The blank control group were administered 0.5% CMC-Na; […] The valsartan group were administered valsartan dissolved in 0.5% CMC-Na, at a dose of 30 mg/kg; The Azilsartan kaMedoxoMil were administered Azilsartan kaMedoxoMil dissolved in 0.5% CMC-Na, at a dose of 1 mg (azilsartan effective dose)/kg; The AHU […] group were administered AHU 377 K, dissolved in 0.5% CMC-Na, at a dose of 30 mg/kg; The AHU377 ammonium salt group were administered AHU377 ammonium salt, dissolved in 0.5% CMC-Na, at a dose of 30 mg/kg; The LCZ696 group were administered LCZ696, dissolved in 0.5% CMC-Na, at a dose of 60 mg/kg; […]
# [4] = tested on: spontaneously hypertensive rats; assay: Antihypertensive efficacy test of the compound 1K in spontaneously hypertensive rats; type: in vivo, rat; conditions: SHR, intragastric, 1 mg/kg; for Heart rates change, 1 hour after administration / Systolic blood pressure change, 1 hour after administration / Heart rates change, 3 hours after administration / Systolic blood pressure change, 3 hours after administration / Heart rates change, 5 hours after administration / Systolic blood pressure change, 5 hours after administration / Heart rates change, 7 hours after administration / Systolic blood pressure change, 7 hours after administration / Heart rates change, 10 hours after administration / Systolic blood pressure change, 10 hours after administration / Heart rates change, 24 hours after administration / Systolic blood pressure change, 24 hours after administration / Heart rates change, before administration / Systolic blood pressure change, before administration: average ± standard error; for Heart rates change, before administration / Systolic blood pressure change, before administration: before administration (reference value)
# Experimental: 12-week-old spontaneously hypertensive rats (hereinafter referred to as SHR, purchased from Beijing Weitong Lihua Experimental Animal Technology Co., Ltd.) were anesthetized with 2.5% sodium pentobarbital for intraperitoneal injection. After that, the blood pressure sensing catheter of hypertension implant was inserted into their abdominal aorta, while the implant was fixed to the abdominal wall, and then postoperative daily care was performed after suturing. Rats with systolic blood pressure exceeding 160 mm Hg were divided into 3 groups (control group, compound 1 group and compound 1K group), wherein each group has 8 rats. The control group was administrated 0.5% sodium carboxymethyl cellulose (hereinafter referred to as CMC-Na); the compound 1 group and the compound 1K group were respectively administered the compound 1 and the compound 1K, both of which were dissolved by 0.5% CMC-Na, by intragastric administration, at a dose of 1 mg/kg (calculated by the effective dose of valsartan) and a volume calculated by 4 mL/kg. The systolic blood pressure and heart rate of SHR were compared before and after administration (the systolic blood pressure and heart rate of SHR before administration as reference value), which were detected three times at each time point with the average value recorded.
Structure (SMILES),ANP rate of change [1],systolic pressure change [1],MAP (mean arterial pressure) [2],heart rate change [3] [times/minute],systolic pressure change [3] [mmHg],EF (left ventricular ejection fraction) [2],"Heart rates change, 1 hour after administration [4] [times/minute]","Systolic blood pressure change, 1 hour after administration [4] [mmHg]","Heart rates change, 3 hours after administration [4] [times/minute]","Systolic blood pressure change, 3 hours after administration [4] [mmHg]","Heart rates change, 5 hours after administration [4] [times/minute]","Systolic blood pressure change, 5 hours after administration [4] [mmHg]","Heart rates change, 7 hours after administration [4] [times/minute]","Systolic blood pressure change, 7 hours after administration [4] [mmHg]","Heart rates change, 10 hours after administration [4] [times/minute]","Systolic blood pressure change, 10 hours after administration [4] [mmHg]","Heart rates change, 24 hours after administration [4] [times/minute]","Systolic blood pressure change, 24 hours after administration [4] [mmHg]","Heart rates change, before administration [4] [times/minute]","Systolic blood pressure change, before administration [4] [mmHg]",other results
"CCOC(=O)[C@H](C)C[C@@H](Cc1ccc(-c2ccccc2)cc1)NC(=O)CCC(=O)O.N [AHU377 ammonium salt, Ammonium 4-(((2S,4R)-1-([1,1′-biphenyl]-4-yl)-5-ethoxy-4-methyl-5-oxopentane-2-yl)amino)-4-oxobutanoate]",135.3p %,−18.3p am mmHg,172oup mmHg,3 ± 2.1,−18.5 ± 2.5,–,–,–,–,–,–,–,–,–,–,–,–,–,–,–,–
"CCOC(=O)[C@H](C)C[C@@H](Cc1ccc(-c2ccccc2)cc1)NC(=O)CCC(=O)[O-].[K+] [AHU 377K, potassium 4-(((2S,4R)-1-([1,1′-biphenyl]-4-yl)-5-ethoxy-4-methyl-5-oxopentan-2-yl)amino)-4-oxobutanoate]",143.6p %,−20.6p7Km mmHg,170.6p7K mmHg,−8.1 ± 2.8,−15.6 ± 2.5,37.46p7K %,–,–,–,–,–,–,–,–,–,–,–,–,–,–,–
CCOc1nc2cccc(C(=O)OCc3oc(=O)oc3C)c2n1Cc1ccc(-c2ccccc2-c2noc(=O)[n-]2)cc1.[K+] [Azilsartan kaMedoxoMil],132.3s^ %,−36.3sium mmHg,150.4sium^ mmHg,−11.1 ± 3.7,−33.5 ± 3.2,45.14siu %,–,–,–,–,–,–,–,–,–,–,–,–,–,–,–
CCOc1nc2cccc(C(=O)OC(C)OC(=O)OCc3nc(C)c(C)nc3C)c2n1Cc1ccc(-c2ccccc2-c2noc(=O)[n-]2)cc1.[K+] (centres unmarked) [Compound 1K],158 ± 7%,−48.5 ± 7.5 mmHg,145.5 ± 8.9 mmHg,−29.3 ± 4.1,−50.4 ± 4.7,48.6 ± 5.3%,−3.6 ± 2.4,−7.0 ± 3.4,−5.0 ± 2.5,−34.3 ± 1.9,−10.1 ± 3.0,−46.5 ± 2.5,−17.5 ± 3.0,−49.4 ± 4.1,−25.4 ± 2.4,−45.3 ± 3.3,−28.6 ± 8,−25.9 ± 3.4,0.0 ± 0.0,0.0 ± 0.0,antihypertensive effect compared with the compound 1 group ([4]; result in words): more potent with longer-lasting antihypertensive effect; effect of lowering heart rate compared with the compound 1 group ([4]; result in words): more potent with longer-lasting effect of lowering heart rate
CCOc1nc2cccc(C(=O)OC(C)OC(=O)OCc3nc(C)c(C)nc3C)c2n1Cc1ccc(-c2ccccc2-c2noc(=O)[nH]2)cc1 (centres unmarked) [Compound 1],–,–,–,–,–,–,−3.4 ± 2.6,−4.9 ± 4.8,−2.33 ± 2.6,−22.0 ± 3.6,−6.5 ± 2.8,−30.5 ± 3.5,−6.2 ± 3.0,−38.8 ± 2.3,−12.3 ± 2.8,−33.0 ± 1.7,−6.7 ± 2.6,−10.2 ± 2.1,0.0 ± 0.0,0.0 ± 0.0,melting point: 135 to 145 °C
CCCCC(=O)N(Cc1ccc(-c2ccccc2-c2nnn[nH]2)cc1)[C@H](C(=O)O)C(C)C [valsartan],125 ± 52%,−32.4 ± 4.6 mmHg,–,−10.6 ± 3.2,−30.6 ± 3.5,35.3arta^ %,–,–,–,–,–,–,–,–,–,–,–,–,–,–,–
